Data reported in US8710017B2, “Human and mouse targeting peptides identified by phage display” (priority 2000, dated 2014).
Entries after “also recorded” stand apart in the source; their conditions may differ. Ends that are not written are not given here. Peptide text beside a SMILES is read from it. * marks the point of attachment. Cbz = O=C(OCc1ccccc1)*; CH2F = FC*

Columns and labels:
mouse placenta = assay: In vivo biopanning for placenta homing phage with post-clearing (clone frequency per round); conditions: for frequency of phage clone in round III: round III of in vivo biopanning in pregnant mice; for frequency of phage clone in round IV: post-clearing in non-pregnant mouse
Method: Peptides homing to the mouse placenta were identified by a post-clearing protocol using a phage display library. A first round of biopanning was performed on pregnant mice. Samples of placenta were removed and phage rescued according to the standard protocols described above, with one modification. In the typical bipanning protocol, thousands of phage may be recovered from a single organ, tissue or cell type. Typically, between 200 and 300 individual colonies were selected from plated phage and these were amplified and pooled to form the phage display library for the second or third rounds of biopanning. In this example, all phage rescued from the first round of biopanning were amplified in bulk on solid medium and then pooled to form the phage display library for the second round of biopanning. That is, there was no restriction of the rescued phage from the first round of biopanning. This in vivo biopanning without restriction was performed for three rounds (rounds I-III), then a post-clearing procedure was used.
In the post-clearing protocol (round IV), phage were administered to a non-pregnant mouse. Phage that bound to tissues other than placenta were absorbed from the circulation. Remaining phage were recovered from the plasma of the non-pregnant mouse. This protocol was designed to isolate phage that bound to placenta but not to other mouse organs, tissues or cell types. The following placenta targeting peptides were identified, along with their frequencies. A search of the GenBank database disclosed that none of the SEQ ID NO's listed below was 100% homologous with any known peptide sequence.

placenta [1] = assay: Validation of placenta homing phage: recovery from placenta of pregnant mice; type: in vivo, mouse; conditions: FIG. 1
Excerpt: FIG. 1. Validation of placenta homing phage. […] The placenta homing phage clones were: […] NO:43). The placenta homing peptides were validated in vivo by injection into pregnant mice and recovery from the placenta. […] The phage clones are identified as: […] NO:43).

APA (SK-RC-49/APA cells) [2] = biological target: T1, APA (SK-RC-49/APA cells) (Homo sapiens, UniProt Q07075); assay: Cell panning of CX3CX3CX3C phage library on SK-RC-49/APA cells (insert frequency); type: cell-based; conditions: share of 18 randomly selected phage inserts, round 2
T1 construct: The renal carcinoma cell line SK-RC-49 was transfected with an expression vector encoding full-length APA cDNA; expressed in transfected cells; host or cells: SK-RC-49 renal carcinoma cells, stably transfected (G418)
T1 sequence (Q07075 whole entry): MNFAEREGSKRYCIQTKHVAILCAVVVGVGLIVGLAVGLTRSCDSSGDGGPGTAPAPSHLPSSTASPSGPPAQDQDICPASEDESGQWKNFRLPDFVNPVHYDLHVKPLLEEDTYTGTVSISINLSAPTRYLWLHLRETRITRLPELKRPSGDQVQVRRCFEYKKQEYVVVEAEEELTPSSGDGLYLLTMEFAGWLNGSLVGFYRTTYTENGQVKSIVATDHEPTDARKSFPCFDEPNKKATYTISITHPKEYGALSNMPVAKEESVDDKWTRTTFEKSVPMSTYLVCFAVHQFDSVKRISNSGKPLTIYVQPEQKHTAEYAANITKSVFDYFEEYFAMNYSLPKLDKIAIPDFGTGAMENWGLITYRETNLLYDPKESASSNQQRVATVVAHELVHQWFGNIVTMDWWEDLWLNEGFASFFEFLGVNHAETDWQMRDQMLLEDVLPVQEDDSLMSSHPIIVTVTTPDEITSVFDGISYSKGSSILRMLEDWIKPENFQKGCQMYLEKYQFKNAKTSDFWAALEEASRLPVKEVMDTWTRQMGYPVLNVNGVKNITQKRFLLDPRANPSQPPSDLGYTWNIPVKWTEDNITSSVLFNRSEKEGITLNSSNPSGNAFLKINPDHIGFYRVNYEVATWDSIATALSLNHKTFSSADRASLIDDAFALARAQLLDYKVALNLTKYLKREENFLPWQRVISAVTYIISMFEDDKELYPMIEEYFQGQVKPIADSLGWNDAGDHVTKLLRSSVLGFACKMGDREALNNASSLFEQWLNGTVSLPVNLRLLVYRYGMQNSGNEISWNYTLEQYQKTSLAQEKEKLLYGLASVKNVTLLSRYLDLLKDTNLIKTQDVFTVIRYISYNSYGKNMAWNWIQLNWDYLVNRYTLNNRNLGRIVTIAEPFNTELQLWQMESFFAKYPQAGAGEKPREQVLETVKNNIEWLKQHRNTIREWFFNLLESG
Method: A CX3CX3CX3C(C, cysteine; X, any amino acid) library was prepared (Rajotte et al., 1998). […] Cells were detached by incubation with 2.5 mM EDTA in PBS, washed once in binding medium (DMEM high glucose supplemented with 20 mM HEPES and 2% FCS), and resuspended in the same medium at a concentration of 2×10^6 cells/ml. 10^10 TU of phage were added to 500 μl of the cell suspension, and the mixture was incubated overnight (first round) or for 2 h (successive rounds) at 4° C. with gentle rotation. Cells were washed five times in binding medium at room temperature and resuspended in 100 μl of the same medium. Phage were rescued by adding 1 ml of exponentially growing K91Kan Escherichia coli bacteria and incubating the mixture for 1 h at room temperature. Bacteria were diluted in 10 ml of LB medium supplemented with 0.2 μg/ml tetracycline and incubated for another 20 min at room temperature. Serial dilutions were plated on LB plates containing 40 μg/ml tetracycline, and plates were incubated at 37° C. overnight before colonies were counted.
The CX3CX3CX3C phage library (10^10 transducing units [TU]) was preadsorbed on parental SK-RC-49 cells to decrease nonspecific binding. […] SK-RC-49/APA-bound phage were amplified and used for two consecutive rounds of selection.

APA (SK-RC-49/APA cells) [3] = biological target: T1, APA (SK-RC-49/APA cells); assay: Phage binding specificity assay on SK-RC-49/APA cells; type: cell-based
Method: The cell binding assay was performed with an input of 10^9 TU as described for the cell panning. The specificity was confirmed by adding […] (SEQ ID NO:123) peptide to the binding medium in increasing concentrations. For phage binding on immunocaptured APA, wells were blocked for 1 h at room temperature with PBS/3% BSA and incubated with 10^9 TU for 1 h at room temperature in 50 μl PBS/3% BSA. After eight washes in PBS/1% BSA/0.01% Tween-20 and two washes in PBS, phage were rescued by adding 200 μl of exponentially growing K91Kan E. coli. Each experiment was repeated at least three times.

[4] = tested on: MDA-MB-435-derived tumor xenografts; assay: In vivo tumor homing of APA-binding phage; design: species or system mouse; conditions: 10^9 TU iv, 5 min circulation, FIG. 22
Method: MDA-MB-435-derived tumor xenografts were established in female nude mice 2 months old (Jackson Labs, Bar Harbor, Me.). Mice were anesthetized with Avertin and injected intravenously through the tail vein with 10^9 TU of the phage in a 200 μl volume of DMEM. The phage were allowed to circulate for 5 min, and the animals were perfused through the heart with 5 ml of DMEM. The tumor and brain were dissected from each mouse, weighed, and equal amounts of tissue were homogenized. The tissue homogenates were washed three times with ice-cold DMEM containing a proteinase inhibitor cocktail and 0.1% BSA. Bound phage were rescued and counted as described for cell panning. Fd-tet phage was injected at the same input as a control. The experiment was repeated twice. In parallel, part of the same tissue samples were fixed in Bouin solution, and imbedded in paraffin for preparation of tissue sections. An antibody to M-13 phage (Amersham-Pharmacia) was used for the staining.

adipose tissue = assay: Validation of adipose homing phage by in vivo homing; design: species or system mouse; conditions: FIG. 2
Method: FIG. 2. Validation of adipose homing peptides. Phage bearing targeting peptides identified in Example 4 were injected into pregnant mice and their recovery from adipose tissue was compared to control fd-tet phage without targeting sequences.
The fat homing clones selected were: FA—KGGRAKD (SEQ ID NO:53), FC—RGEVLWS (SEQ ID NO:54), FE—TREVHRS (SEQ ID NO:47) and FX—VMGSVTG (SEQ ID NO:52).

placenta [5] = assay: Effect of placental targeting peptide conjugates on fetal development in pregnant mice; type: in vivo, mouse; conditions: for effect on pregnancy: FITC conjugated, lower dosages (450 μg total); for effect on fetal development: protein and phage conjugated, higher dosages (800 to 1000 μg protein or 4.5×10^10 phage)
Excerpt: The CARAC peptide (SEQ ID NO:46), an adipose targeting peptide (FE, TREVHRS, SEQ ID NO:47) or fd-tet phage were used as non-placental targeting controls.

GST-β5 integrin = biological target: T2, GST-β5 integrin (Homo sapiens, UniProt P18084); assay: Annexin V binding to GST-β5 cytoplasmic domain (ELISA), competition with VISY peptide; conditions: FIG. 20A
T2 construct: Plates were coated with GST fusion proteins of the cytoplasmic domains of various integrins and Annexin V was added to the plates
T2 sequence (P18084 743-799 limits assumed): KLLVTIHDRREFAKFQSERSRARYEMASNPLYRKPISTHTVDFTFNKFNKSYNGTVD
Method: Competitive binding assays were performed to examine the binding of Annexin V to β5 integrin and the effect of the VISY peptide. Plates were coated with GST fusion proteins of the cytoplasmic domains of various integrins and Annexin V was added to the plates. Binding of Annexin V was determined using anti-Annexin V antibodies. […] Calcium was used because Annexin V activity has been reported to be modulated by calcium. Binding of Annexin V to GST-β5 was blocked by addition of the VISY peptide (FIG. 20A).
A reciprocal study was performed, using Annexin V to coat plates and adding GST fusion proteins of integrin cytoplasmic domains. Binding was assessed using anti-GST fusion protein antibodies. […] In some studies, calcium ion appeared to interfere with the binding interaction between GST-β5 and Annexin V, with decreased binding observed in the presence of calcium (not shown).

HUVEC = assay: Apoptosis by chromatin fragmentation (agarose gel) in HUVEC; type: cell-based, human
Method: 10^6 HUVEC were treated with 15 μM of VISY antennapedia (penetratin) chimera or 15 μM of antennapedia peptide (pentratin) alone for 2-4 hours and chromatin fragmentation was analyzed by electrophoresis in an agarose gel.

[6] = FITC conjugates-I, 1 mouse iv (predominantly) or ip ~every other day, day 1-day 18, 9 times, Total 450 μg)
[7] = FITC conjugates-II, 1 mouse sc (predominantly) or iv ~every other day, day 4-day 17, 10 times, Total 1M (~1 mg)

YIRPFTL [placenta targeting peptide, phage clone PF]
frequency of phage clone in round III (mouse placenta): 2.1%
frequency of phage clone in round IV (mouse placenta): 5.3%
placental homing of phage compared to control fd-tet phage (placenta [1]): not substantially enriched in placenta

CLGQCASICVNDC
Round 2 (%) (APA (SK-RC-49/APA cells) [2]): 5%
displacement of phage binding by CPRECESIC peptide (APA (SK-RC-49/APA cells) [3]; data not shown): not affected
enrichment in tumor xenografts compared to brain tissue [4]: Neither CYNLCIRECESICGADGACWTWCADGCSRSC (SEQ ID NO:125) nor CLGQCASICVNDC (SEQ ID NO:126) phage showed any tumor-homing preference

RGEVLWS [fat-targeting peptide, fat homing phage clone FC]
homing to adipose tissue compared to control fd-tet phage (adipose tissue): some elevation of homing to adipose tissue

GST-PA: PA peptide (TPKTSVT) attached to GST (glutathion S-transferase)
Peptide Effect on Embryo (placenta [5]; GST conjugates-I, 1 mouse sc (predominantly) or iv ~every other day, day 4-day 17, 10 times, Total 800 μg): Pregnancy termination

CSMMCLEGCDDWC
Round 2 (%) (APA (SK-RC-49/APA cells) [2]): 5%

VMGSVTG [fat-targeting peptide, fat homing phage clone FX]
homing to adipose tissue compared to control fd-tet phage (adipose tissue): several orders of magnitude higher adipose localization

VGLHARA [placenta targeting peptide]
frequency of phage clone in round III (mouse placenta): 4.2%
frequency of phage clone in round IV (mouse placenta): 7.4%

LGLRSVG [placenta targeting peptide, phage clone PE]
frequency of phage clone in round III (mouse placenta): < 1%
frequency of phage clone in round IV (mouse placenta): 5.3%
placental homing of phage compared to control fd-tet phage (placenta [1]): not substantially enriched in placenta

VVISYSMPD
effect on binding of Annexin V to GST-β5 (GST-β5 integrin): blocked
induction of apoptosis (chromatin fragmentation) (HUVEC; 15 μM, 2-4 hours, FIG. 21): Neither VISY or penetratin alone induced apoptosis

KGGRAKD [fat-targeting peptide, fat homing phage clone FA]
homing to adipose tissue compared to control fd-tet phage (adipose tissue): some elevation of homing to adipose tissue

TPKTSVT: placenta targeting peptide, tested displayed on phage clone PA
effect on pregnancy (placenta [5]): slight effect on pregnancy
effect on fetal development (placenta [5]): substantially interfered with fetal development

CGTGCAVECEVVC
Round 2 (%) (APA (SK-RC-49/APA cells) [2]): 5%
enrichment of phage binding on SK-RC-49/APA cells relative to SK-RC-49 parental cells (APA (SK-RC-49/APA cells) [3]; input 10^9 TU, not shown): no selective binding

RMDGPVR [placenta targeting peptide]
frequency of phage clone in round III (mouse placenta): 3.1%
frequency of phage clone in round IV (mouse placenta): 8.5%

RAPGGVR [placenta targeting peptide, phage clone PC]
frequency of phage clone in round III (mouse placenta): < 1%
frequency of phage clone in round IV (mouse placenta): 8.5%
placental homing of phage compared to control fd-tet phage (placenta [1]): substantially higher placental localization

TREVHRS [adipose targeting peptide, fat homing phage clone FE]
homing to adipose tissue compared to control fd-tet phage (adipose tissue): some elevation of homing to adipose tissue

TPKTSVT
frequency of phage clone in round III (mouse placenta): 7.4%
frequency of phage clone in round IV (mouse placenta): 8.5%
placental homing of phage compared to control fd-tet phage (placenta [1]): more than an order of magnitude greater

CAVACWADCQLGC
Round 2 (%) (APA (SK-RC-49/APA cells) [2]): 5%

PF-FITC: placenta homer PF peptide (YIRPFTL) attached to FITC (also: FITC conjugate, site not given here)
Peptide Effect on Embryo (placenta [5]; [6]): Development delay,; also recorded: toxicity
Pregnancy Outcome (placenta [5]; [6]): 21 d, 1 dead pup
Peptide Effect on Embryo (placenta [5]; [7]): Pregnancy termination
Pregnancy Outcome (placenta [5]; [7]): No fetuses inside

CSGLCTVQCLEGC
Round 2 (%) (APA (SK-RC-49/APA cells) [2]): 5%

COC(=O)C[C@H](NC(=O)[C@H](C)NC(=O)[C@@H](NC(=O)OCc1ccccc1)C(C)C)C(=O)CF [zVAD, reference compound] (Cbz-Val-Ala-Asp(OMe)-CH2F)
inhibition of VISY chimeric peptide-induced apoptosis (HUVEC; caspase inhibitor added at the same time as the VISY chimeric peptide): up to 70%

CPKVCPRECESNC
Round 2 (%) (APA (SK-RC-49/APA cells) [2]): 5%
enrichment in tumor xenografts compared to brain tissue [4]: 4 fold

YIRPFTL: placenta targeting peptide, phage clone PF
effect on pregnancy (placenta [5]): slight effect on pregnancy
effect on fetal development (placenta [5]): substantially interfered with fetal development

CARAC-FITC: CARAC peptide (SEQ ID NO:46) attached to FITC, non-placental targeting control (cysteine pairing not given here; also: attached to FITC, site not given here) [reference compound]
Peptide Effect on Embryo (placenta [5]; [6]): No effect
Pregnancy Outcome (placenta [5]; [6]): 18 d, 5 normal pups
Peptide Effect on Embryo (placenta [5]; [7]): Slight toxicity?
Pregnancy Outcome (placenta [5]; [7]): 20 d, 5 pups, 1-dead

PA-FITC: placenta homer PA peptide (TPKTSVT) attached to FITC (fluorescein isothiocyanate) (also: FITC conjugate, site not given here)
Peptide Effect on Embryo (placenta [5]; [6]): No effect
Pregnancy Outcome (placenta [5]; [6]): 19 d, 8 normal pups
Peptide Effect on Embryo (placenta [5]; [7]): Pregnancy termination
Pregnancy Outcome (placenta [5]; [7]): No fetuses inside
